# According to patent US5545653A (priority 1995, dated 1996):
# Key:
# Type in all cases: cell-based
# PV-1 (poliovirus) = test: microbe, parasite or virus in culture; conditions: Enterovirus C, 72 h, read-out: IC50 (50 percent inhibition of plaque formation), PV-1
# CS-21C (Coxsackie virus) = test: organism not typed; conditions: 72 hours at 37° C.; read-out: IC50 (50 percent inhibition of plaque formation), CS-21C
# RhV-14 (Rhinovirus) = test: microbe, parasite or virus in culture; conditions: Enterovirus; 120 hours at 32° C.; read-out: IC50 (50 percent inhibition of plaque formation), RhV-14
structure (smiles),measurement,setting,value
CC(C)S(=O)(=O)n1c(N)nc2ccc(C(=O)c3ccccc3F)cc21 [Example 11],IC50,PV-1 (poliovirus),1.7 µg/mL
same,IC50,CS-21C (Coxsackie virus),0.44 µg/mL
CC(C)S(=O)(=O)n1c(N)nc2ccc(C(=O)c3ccc(OC(F)(F)F)cc3)cc21 [Example 6],IC50,RhV-14 (Rhinovirus),0.329 µg/mL
CC(C)S(=O)(=O)n1c(N)nc2ccc(C(=O)c3cc(F)ccc3F)cc21 [Example 20],IC50,PV-1 (poliovirus),0.19 µg/mL
same,IC50,RhV-14 (Rhinovirus),1.32 µg/mL
CC(C)S(=O)(=O)n1c(N)nc2ccc(C(=O)c3cc(F)cc(F)c3)cc21 [Example 5],IC50,RhV-14 (Rhinovirus),3.9 µg/mL
CC(C)S(=O)(=O)n1c(N)nc2ccc(C(=O)c3cccc(F)c3)cc21 [Example 3],IC50,RhV-14 (Rhinovirus),2.14 µg/mL
